According to ChEMBL document CHEMBL5365394, “Design, synthesis and biological evaluation of novel spiro-quinazolinone derivatives as chitin synthase inhibitors and antifungal agents” (Eur J Med Chem, 2023):
Values after ≈ are worked out from the molar mass of the structure shown. Active and inactive are the calls of the source. The rule behind the calls is not given here.

Legend:
[1] = Inhibition of Saccharomyces cerevisiae CGMCC2.145 chitin synthase […] by TMB based microplate reader analysis
[2] = Non competitive inhibition of Candida tropicalis ATCC 750 chitin synthase using UDP-GlcNAc as substrate assessed as inhibition constant incubated for 1 hr by double reciprocal plot analysis
Candida albicans [3] = test: Synergistic antifungal activity against Candida albicans ATCC 76615 assessed as polyoxin B MIC incubated for 24 hrs by checkerboard broth microdilution method; type: functional
Aspergillus fumigatus [4] = test: Antifungal activity against Aspergillus fumigatus GIMCC 3.19 assessed as inhibition of cell wall synthesis incubated for 24 hrs in absence of sorbitol; type: functional
Aspergillus flavus [5] = test: Synergistic antifungal activity against Aspergillus flavus ATCC 16870 assessed as polyoxin B MIC incubated for 24 hrs by checkerboard broth microdilution method; type: functional
Aspergillus fumigatus [6] = test: Antifungal activity against Fluconazole-resistant Aspergillus fumigatus GIMCC 3.19R assessed as fungal growth inhibition; type: functional
Aspergillus fumigatus [7] = test: Synergistic antifungal activity against Aspergillus fumigatus GIMCC 3.19 assessed as fluconazole MIC incubated for 24 hrs in by checkerboard broth microdilution method; type: functional
Candida albicans [8] = test: Antifungal activity against Fluconazole-resistant Candida albicans ATCC 76615R assessed as fungal growth inhibition; type: functional
Candida albicans [9] = test: Antifungal activity against Candida albicans ATCC 76615 assessed as fungal growth inhibition incubated for 24 hrs by two-fold serial dilution method; type: functional
Candida albicans [10] = test: Antifungal activity against Micafungin-resistant Candida albicans ATCC 76615R assessed as fungal growth inhibition; type: functional
Candida albicans [11] = test: Synergistic antifungal activity against Candida albicans ATCC 76615 assessed as fluconazole MIC incubated for 24 hrs in by checkerboard broth microdilution method; type: functional
[12] = Inhibition of Candida tropicalis ATCC 750 chitin synthase using UDP-GlcNAc as substrate incubated for 1 hr by absorbance based assay
Cryptococcus neoformans [13] = test: Synergistic antifungal activity against Cryptococcus neoformans ATCC 32719 assessed as fractional inhibitory concentration index incubated for 24 hrs in presence of fluconazole by checkerboard broth microdilution method; type: functional
Aspergillus fumigatus [14] = test: Antifungal activity against Aspergillus fumigatus GIMCC 3.19 assessed as fungal growth inhibition incubated for 24 hrs by two-fold serial dilution method; type: functional
Aspergillus flavus [15] = test: Synergistic antifungal activity against Aspergillus flavus ATCC 16870 assessed as fractional inhibitory concentration index incubated for 24 hrs in presence of polyoxin B by checkerboard broth microdilution method; type: functional
Aspergillus fumigatus [16] = test: Antifungal activity against Aspergillus fumigatus GIMCC 3.19 assessed as inhibition of cell wall synthesis incubated for 24 hrs in presence of sorbitol; type: functional
Cryptococcus neoformans [17] = test: Antifungal activity against Cryptococcus neoformans ATCC 32719 assessed as inhibition of cell wall synthesis incubated for 24 hrs in presence of sorbitol; type: functional
Aspergillus flavus [18] = test: Antifungal activity against Fluconazole-resistant Aspergillus flavus ATCC 16870R assessed as fungal growth inhibition; type: functional
Aspergillus flavus [19] = test: Antifungal activity against Aspergillus flavus ATCC 16870 assessed as fungal growth inhibition incubated for 24 hrs by two-fold serial dilution method; type: functional
Candida tropicalis [20] = test: Non competitive inhibition of Candida tropicalis ATCC 750 chitin synthase using UDP-GlcNAc as substrate assessed as Km at 0.05 to 0.15 mM incubated for 1 hr by Michaelis-Menten analysis; conditions: dose 0.05-0.15 mM
[21] = Cytotoxicity against human A549 cells assessed as cell viability at 4 ug/ml incubated for 24 hrs by CCK-8 assay relative to control; type: toxicity, cell-based; conditions: at 4 µg/mL, read-out: Activity
Cryptococcus neoformans [22] = test: Synergistic antifungal activity against Cryptococcus neoformans ATCC 32719 assessed as fluconazole MIC incubated for 24 hrs in by checkerboard broth microdilution method; type: functional
Aspergillus fumigatus [23] = test: Synergistic antifungal activity against Aspergillus fumigatus GIMCC 3.19 assessed as fractional inhibitory concentration index incubated for 24 hrs in presence of fluconazole by checkerboard broth microdilution method; type: functional
Candida tropicalis [24] = test: Non competitive inhibition of Candida tropicalis ATCC 750 chitin synthase using UDP-GlcNAc as substrate assessed as Vmax at 0.05 to 0.15 mM incubated for 1 hr by Michaelis-Menten analysis; conditions: dose 0.05-0.15 mM
[25] = Cytotoxicity against human A549 cells assessed as cell viability at 32 ug/ml incubated for 24 hrs by CCK-8 assay relative to control; type: toxicity, cell-based; conditions: at 32 µg/mL, read-out: Activity
Cryptococcus neoformans [26] = test: Antifungal activity against Fluconazole-resistant Cryptococcus neoformans ATCC 32719R assessed as fungal growth inhibition; type: functional
Cryptococcus neoformans [27] = test: Synergistic antifungal activity against Cryptococcus neoformans ATCC 32719 assessed as polyoxin B MIC incubated for 24 hrs in by checkerboard broth microdilution method; type: functional
Aspergillus flavus [28] = test: Synergistic antifungal activity against Aspergillus flavus ATCC 16870 assessed as fluconazole MIC incubated for 24 hrs in by checkerboard broth microdilution method; type: functional
Candida albicans [29] = test: Synergistic antifungal activity against Candida albicans ATCC 76615 assessed as fractional inhibitory concentration index incubated for 24 hrs in presence of fluconazole by checkerboard broth microdilution method; type: functional
Candida tropicalis [30] = test: Non competitive inhibition of Candida tropicalis ATCC 750 chitin synthase using UDP-GlcNAc as substrate assessed as decrease in Vmax with constant Km at 0.05 to 0.15 mM incubated for 1 hr by Michaelis-Menten analysis; conditions: dose 0.05-0.15 mM
Cryptococcus neoformans [31] = test: Antifungal activity against Cryptococcus neoformans ATCC 32719 assessed as fungal growth inhibition incubated for 24 hrs by two-fold serial dilution method; type: functional
Cryptococcus neoformans [32] = test: Antifungal activity against Cryptococcus neoformans ATCC 32719 assessed as inhibition of cell wall synthesis incubated for 24 hrs in absence of sorbitol; type: functional
[33] = Cytotoxicity against human A549 cells assessed as cell viability at 16 ug/ml incubated for 24 hrs by CCK-8 assay relative to control; type: toxicity, cell-based; conditions: at 16 µg/mL, read-out: Activity
Candida albicans [34] = test: Synergistic antifungal activity against Candida albicans ATCC 76615 assessed as fractional inhibitory concentration index incubated for 24 hrs in presence of polyoxin B by checkerboard broth microdilution method; type: functional
Candida albicans [35] = test: Antifungal activity against Candida albicans ATCC 76615 assessed as inhibition of cell wall synthesis incubated for 24 hrs in absence of sorbitol; type: functional
Cryptococcus neoformans [36] = test: Synergistic antifungal activity against Cryptococcus neoformans ATCC 32719 assessed as fractional inhibitory concentration index incubated for 24 hrs in presence of polyoxin B by checkerboard broth microdilution method; type: functional
A549 = test: Cytotoxicity against human A549 cells assessed as cell viability incubated for 24 hrs at 128 ug/ml by CCK-8 assay relative to control; conditions: dose 128 µg/ml
Aspergillus flavus [37] = test: Synergistic antifungal activity against Aspergillus flavus ATCC 16870 assessed as fractional inhibitory concentration index incubated for 24 hrs in presence of fluconazole by checkerboard broth microdilution method; type: functional
Candida tropicalis [38] = test: Inhibition of Candida tropicalis ATCC 750 chitin synthase using […] as substrate at 300 ug/ml incubated for 1 hr by absorbance based assay relative to control; conditions: dose 300.0 µg/ml
[39] = Cytotoxicity against human A549 cells assessed as cell viability at 8 ug/ml incubated for 24 hrs by CCK-8 assay relative to control; type: toxicity, cell-based; conditions: at 8 µg/mL, read-out: Activity
Aspergillus fumigatus [40] = test: Synergistic antifungal activity against Aspergillus fumigatus GIMCC 3.19 assessed as fractional inhibitory concentration index incubated for 24 hrs in presence of polyoxin B by checkerboard broth microdilution method; type: functional
Aspergillus flavus [41] = test: Antifungal activity against Aspergillus flavus ATCC 16870 assessed as inhibition of cell wall synthesis incubated for 24 hrs in absence of sorbitol; type: functional
[42] = Cytotoxicity against human A549 cells assessed as cell viability at 64 ug/ml incubated for 24 hrs by CCK-8 assay relative to control; type: toxicity, cell-based; conditions: at 64 µg/mL, read-out: Activity
Aspergillus fumigatus [43] = test: Synergistic antifungal activity against Aspergillus fumigatus GIMCC 3.19 assessed as polyoxin B MIC incubated for 24 hrs by checkerboard broth microdilution method; type: functional
Candida albicans [44] = test: Antifungal activity against Candida albicans ATCC 76615 assessed as inhibition of cell wall synthesis incubated for 24 hrs in presence of sorbitol; type: functional
Aspergillus flavus [45] = test: Antifungal activity against Aspergillus flavus ATCC 16870 assessed as inhibition of cell wall synthesis incubated for 24 hrs in presence of sorbitol; type: functional

Structure (SMILES): O=C(Nc1cccc(C(F)(F)F)c1)C1CCN(CC(=O)N2CCC3(CCNC3=O)CC2)CC1
- IC50 [1]: 100 µM

Structure (SMILES): O=C(/C=C/C(=O)Nc1ccc2c(c1)C(=O)NC1(CCSC1)N2)Nc1ccc([N+](=O)[O-])cc1 (stereo unspecified)
- Ki [2]: 160 µM
- MIC (Candida albicans [3]): 2 µg/mL
- MIC (Aspergillus fumigatus [4]): 8 µg/mL (≈ 17.6 µM)
- MIC (Aspergillus flavus [5]): 2 µg/mL
- MIC (Aspergillus fumigatus [6]): 8 µg/mL (≈ 17.6 µM)
- MIC (Aspergillus fumigatus [7]): 4 µg/mL
- MIC (Candida albicans [8]): 8 µg/mL (≈ 17.6 µM)
- MIC (Candida albicans [9]): 1 µg/mL (≈ 2.21 µM)
- MIC (Candida albicans [10]): 8 µg/mL (≈ 17.6 µM)
- MIC (Candida albicans [11]): 0.5 µg/mL
- IC50 [12]: 107 µM
- fractional inhibitory concentration index (FICI) (Cryptococcus neoformans [13]): 1
- MIC (Aspergillus fumigatus [14]): 2 µg/mL (≈ 4.41 µM)
- fractional inhibitory concentration index (FICI) (Aspergillus flavus [15]): 0.375
- MIC (Aspergillus fumigatus [16]): 128 µg/mL
- MIC (Cryptococcus neoformans [17]): 32 µg/mL
- MIC (Aspergillus flavus [18]): 8 µg/mL (≈ 17.6 µM)
- MIC (Aspergillus flavus [19]): 1 µg/mL (≈ 2.21 µM)
- Km (Candida tropicalis [20]): 5.18 mM
- viability at 24 h, 4 ug/ml [21]: 95.1%
- MIC (Cryptococcus neoformans [22]): 2 µg/mL
- fractional inhibitory concentration index (FICI) (Aspergillus fumigatus [23]): 0.75
- Vmax (Candida tropicalis [24]): 1.21 deltaOD/hr
- viability at 24 h, 32 ug/ml [25]: 87.8%
- MIC (Cryptococcus neoformans [26]): 4 µg/mL (≈ 8.82 µM)
- MIC (Cryptococcus neoformans [27]): 4 µg/mL
- MIC (Aspergillus flavus [28]): 1 µg/mL
- fractional inhibitory concentration index (FICI) (Candida albicans [29]): 0.5
- inhibition (Candida tropicalis [30]): Active
- MIC (Cryptococcus neoformans [31]): 2 µg/mL (≈ 4.41 µM)
- MIC (Cryptococcus neoformans [32]): 4 µg/mL (≈ 8.82 µM)
- viability at 24 h, 16 ug/ml [33]: 94%
- fractional inhibitory concentration index (FICI) (Candida albicans [34]): 0.75
- MIC (Candida albicans [35]): 4 µg/mL (≈ 8.82 µM)
- fractional inhibitory concentration index (FICI) (Cryptococcus neoformans [36]): 0.75
- viability (A549): 62.2%
- fractional inhibitory concentration index (FICI) (Aspergillus flavus [37]): 0.5
- inhibition (Candida tropicalis [38]): 82.3%
- viability at 24 h, 8 ug/ml [39]: 94.3%
- fractional inhibitory concentration index (FICI) (Aspergillus fumigatus [40]): 1
- MIC (Aspergillus flavus [41]): 4 µg/mL (≈ 8.82 µM)
- viability at 24 h, 64 ug/ml [42]: 67.1%
- MIC (Aspergillus fumigatus [43]): 8 µg/mL
- MIC (Candida albicans [44]): 64 µg/mL
- MIC (Aspergillus flavus [45]): 64 µg/mL
